Source: patent publication US5668161A, “Substituted thiazoles for the treatment of inflammation” (G.D. Searle & Co., priority 1996, dated 1997)
Where two headings read alike, the source gives them in different places.

Legend:
human COX-I = human COX-I (Homo sapiens, UniProt P23219); test: COX I activity in vitro, human (PGE2 by ELISA)
human COX-II = molecular target: T1, human COX-II (Homo sapiens, UniProt P35354); test: COX II activity in vitro, human (PGE2 by ELISA)
T1 sequence (P35354 18-604): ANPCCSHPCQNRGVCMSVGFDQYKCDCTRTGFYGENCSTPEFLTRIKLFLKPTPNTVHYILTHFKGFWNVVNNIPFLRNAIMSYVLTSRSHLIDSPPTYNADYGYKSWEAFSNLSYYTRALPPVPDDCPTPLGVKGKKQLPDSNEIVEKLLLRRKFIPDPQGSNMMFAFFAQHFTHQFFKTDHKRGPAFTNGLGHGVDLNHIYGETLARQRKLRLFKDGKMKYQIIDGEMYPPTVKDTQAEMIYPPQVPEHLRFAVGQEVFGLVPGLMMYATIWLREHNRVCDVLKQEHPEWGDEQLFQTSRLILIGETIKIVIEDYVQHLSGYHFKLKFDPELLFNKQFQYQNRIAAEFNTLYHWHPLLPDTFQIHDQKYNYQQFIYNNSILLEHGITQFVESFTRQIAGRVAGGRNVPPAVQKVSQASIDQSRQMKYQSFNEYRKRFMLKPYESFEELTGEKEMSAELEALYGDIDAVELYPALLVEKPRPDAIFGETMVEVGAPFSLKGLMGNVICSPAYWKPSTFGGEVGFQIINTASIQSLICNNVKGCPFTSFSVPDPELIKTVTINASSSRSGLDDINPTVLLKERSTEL

carrageenan foot edema = test: Rat Carrageenan Foot Pad Edema Test; type: in vivo, rat (Male Sprague-Dawley); conditions: oral, 3 hours after carrageenan, read-out: RAT PAW EDEMA % Inhibition; for inhibition at 20 mg/kg: @ 20 mg/kg body weight
Experimental: Male Sprague-Dawley rats were selected in each group so that the average body weight was as close as possible. Rats were fasted with free access to water for over sixteen hours prior to the test. […] One hour later a subplantar injection of 0.1 mL of 1% solution of carrageenan/sterile 0.9% saline was administered and the volume of the injected foot was measured with a displacement plethysmometer connected to a pressure transducer with a digital indicator. Three hours after the injection of the carrageenan, the volume of the foot was again measured. […] Rat Carrageenan-induced Analgesia Test

murine COX-II = molecular target: T2, murine COX-II (Mus musculus, UniProt Q05769); test: biochemical
T2 sequence (Q05769 18-604): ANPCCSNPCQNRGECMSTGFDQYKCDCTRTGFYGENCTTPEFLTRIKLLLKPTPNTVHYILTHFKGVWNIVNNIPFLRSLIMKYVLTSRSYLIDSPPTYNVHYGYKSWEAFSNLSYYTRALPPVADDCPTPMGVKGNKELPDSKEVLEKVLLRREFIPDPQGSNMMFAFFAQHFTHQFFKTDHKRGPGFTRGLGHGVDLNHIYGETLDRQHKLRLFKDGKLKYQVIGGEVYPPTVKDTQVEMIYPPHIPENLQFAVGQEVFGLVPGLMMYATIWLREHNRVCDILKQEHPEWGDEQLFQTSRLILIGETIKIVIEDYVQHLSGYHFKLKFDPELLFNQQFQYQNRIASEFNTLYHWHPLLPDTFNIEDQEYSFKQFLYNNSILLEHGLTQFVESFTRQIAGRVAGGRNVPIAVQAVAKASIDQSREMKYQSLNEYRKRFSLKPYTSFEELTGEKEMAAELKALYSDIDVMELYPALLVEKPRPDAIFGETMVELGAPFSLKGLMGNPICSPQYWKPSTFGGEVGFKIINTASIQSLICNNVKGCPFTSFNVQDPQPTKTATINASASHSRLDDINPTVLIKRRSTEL

murine COX-I = molecular target: T3, murine COX-I (Mus musculus, UniProt P22437); test: COX I activity in vitro, murine (PGE2 by ELISA)
T3 sequence (P22437 27-602): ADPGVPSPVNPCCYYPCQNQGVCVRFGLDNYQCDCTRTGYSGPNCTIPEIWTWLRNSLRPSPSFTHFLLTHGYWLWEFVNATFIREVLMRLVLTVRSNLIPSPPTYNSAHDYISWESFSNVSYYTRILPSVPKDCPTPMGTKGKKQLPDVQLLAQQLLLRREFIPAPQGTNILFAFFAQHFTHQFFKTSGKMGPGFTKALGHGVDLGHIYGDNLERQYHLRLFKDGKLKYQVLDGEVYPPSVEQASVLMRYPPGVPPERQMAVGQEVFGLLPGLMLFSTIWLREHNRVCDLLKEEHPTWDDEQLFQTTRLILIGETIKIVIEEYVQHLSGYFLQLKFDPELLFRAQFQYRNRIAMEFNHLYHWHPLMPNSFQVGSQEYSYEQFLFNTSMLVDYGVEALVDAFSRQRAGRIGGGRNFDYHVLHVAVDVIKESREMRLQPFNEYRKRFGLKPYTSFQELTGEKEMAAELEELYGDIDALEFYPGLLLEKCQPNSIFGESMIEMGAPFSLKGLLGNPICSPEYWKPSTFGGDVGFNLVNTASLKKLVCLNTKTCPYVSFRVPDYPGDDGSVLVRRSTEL

Sequence of human COX-I (P23219 24-599): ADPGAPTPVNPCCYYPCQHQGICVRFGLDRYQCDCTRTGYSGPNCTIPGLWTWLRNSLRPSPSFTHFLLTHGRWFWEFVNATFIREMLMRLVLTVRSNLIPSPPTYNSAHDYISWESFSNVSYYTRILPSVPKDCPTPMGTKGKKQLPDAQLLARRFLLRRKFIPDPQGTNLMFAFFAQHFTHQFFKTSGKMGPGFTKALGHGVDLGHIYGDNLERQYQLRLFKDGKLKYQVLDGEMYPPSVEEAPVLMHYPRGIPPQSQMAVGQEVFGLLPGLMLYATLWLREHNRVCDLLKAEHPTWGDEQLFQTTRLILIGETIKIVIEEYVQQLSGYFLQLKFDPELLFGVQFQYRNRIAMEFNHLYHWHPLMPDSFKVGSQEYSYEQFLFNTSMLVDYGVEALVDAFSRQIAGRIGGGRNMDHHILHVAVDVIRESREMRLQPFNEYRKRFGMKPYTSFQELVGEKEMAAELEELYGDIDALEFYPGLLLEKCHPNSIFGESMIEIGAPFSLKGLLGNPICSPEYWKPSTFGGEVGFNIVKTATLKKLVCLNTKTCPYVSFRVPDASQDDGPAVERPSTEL

Row | SMILES | IC50 (human COX-I) | IC50 (human COX-II) | IC50 (murine COX-II) | IC50 (murine COX-I) | IC50 (human COX-I; read-out: COX I ID50, human (h), 10 μM arachidonic acid) | inhibition at 20 mg/kg (carrageenan foot edema) | inhibition at 10 mg/kg (carrageenan foot edema)
1 | COc1ccc(-c2nc(-c3ccccc3Cl)sc2-c2ccc(S(C)(=O)=O)cc2)cc1 [Example 11, 2-(2-Chlorophenyl)-4-(4-methoxyphenyl)-5-(4-methylsulfonylphenyl)thiazole] | > 100000 nM | < 100 nM | – | – | – | – | –
2 | CS(=O)(=O)c1ccc(-c2sc(-c3ccccc3Cl)nc2-c2ccccc2)cc1 [Example 2, 2-(2-Chlorophenyl)-4-phenyl-5-(4-methylsulfonylphenyl)thiazole] | – | < 100 nM | – | – | – | – | –
3 | CS(=O)(=O)c1ccc(-c2sc(-c3ccccc3Cl)nc2-c2cccc(F)c2)cc1 [Example 3, 2-(2-Chlorophenyl)-4-(3-fluorophenyl)-5-(4-methylsulfonylphenyl)thiazole] | – | < 100 nM | – | – | – | – | –
4 | CS(=O)(=O)c1ccc(-c2sc(-c3ccccc3Cl)nc2-c2ccc(Cl)cc2)cc1 [Example 10, 2-(2-Chlorophenyl)-4-(4-chlorophenyl)-5-(4-methylsulfonylphenyl)thiazole] | > 100000 nM | < 100 nM | – | – | – | 14% | –
5 | CS(=O)(=O)c1ccc(-c2sc(-c3ccccc3Cl)nc2-c2ccc(Br)cc2)cc1 [Example 40, 4-(4-Bromophenyl)-2-(2-chlorophenyl)-5-[4-(methylsulfonyl)phenyl]thiazole] | > 100000 nM | < 100 nM | – | – | – | – | –
6 | CS(=O)(=O)c1ccc(-c2sc(-c3c(F)c(F)c(F)c(F)c3F)nc2-c2ccc(F)cc2)cc1 [Example 57] | > 100000 nM | < 100 nM | > 100 nM | 4900 nM | – | – | 2%
7 | CS(=O)(=O)c1ccc(-c2sc(-c3ccccc3Cl)nc2-c2ccccc2Cl)cc1 [Example 9, 2-(2-Chlorophenyl)-4-(2-chlorophenyl)-5-(4-methylsulfonylphenyl)thiazole] | > 100000 nM | < 100 nM | – | – | – | – | –
8 | CS(=O)(=O)c1ccc(-c2nc(C(F)(F)F)sc2-c2ccc(F)cc2)cc1 [Example 56, 5-(4-fluorophenyl)-4-(4-methylsulfonylphenyl)-2-trifluoromethylthiazole] | > 100000 nM | < 100 nM | < 100 nM | > 100000 nM | – | – | 20%
9 | CS(=O)(=O)c1ccc(-c2sc(C(Br)S(=O)(=O)c3cccs3)nc2-c2ccc(F)cc2)cc1 (stereo not shown) [Example 14] | > 100000 nM | 600 nM | 500 nM | 39800 nM | – | – | –
10 | CS(=O)(=O)c1ccc(-c2sc(-c3ccccc3Cl)nc2-c2ccc(F)cc2F)cc1 [Example 4, 4-(2,4-Difluorophenyl)-2-(2-chlorophenyl)-5-(4-methylsulfonylphenyl)thiazole] | – | < 100 nM | < 100 nM | 6200 nM | 70000 nM | – | –
11 | CS(=O)(=O)c1ccc(-c2sc(C(F)(F)F)nc2-c2ccc(F)cc2)cc1 [Example 23, 4-(4-Fluorophenyl)-5-(4-methylsulfonylphenyl)-2-trifluoromethylthiazole] | 1100 nM | < 100 nM | < 100 nM | 700 nM | – | 39.5% | –
12 | Cc1ccc(-c2nc(-c3ccccc3Cl)sc2-c2ccc(S(C)(=O)=O)cc2)cc1 [Example 15, 2-(2-Chlorophenyl)-5-(4-methylsulfonylphenyl)-4-(4-methylphenyl)thiazole] | > 100000 nM | 200 nM | – | – | – | – | –
13 | Cc1ccccc1-c1nc(-c2ccccc2Cl)sc1-c1ccc(S(C)(=O)=O)cc1 [Example 5, 2-(2-Chlorophenyl)-4-(2-methylphenyl)-5-(4-methylsulfonylphenyl)thiazole] | > 100000 nM | < 100 nM | – | – | – | – | –
14 | CCCCNc1nc(-c2ccc(F)cc2)c(-c2ccc(S(C)(=O)=O)cc2)s1 [Example 47, 2-Butylamino-4-(4-fluorophenyl)-5-(4-methylsulfonylphenyl)thiazole] | – | – | < 100 nM | 1400 nM | – | 12% | –

Now from value to compound, other results behind:

Row | IC50 (human COX-I) | IC50 (human COX-II) | IC50 (murine COX-II) | IC50 (murine COX-I) | IC50 (human COX-I; read-out: COX I ID50, human (h), 10 μM arachidonic acid) | SMILES | inhibition at 20 mg/kg (carrageenan foot edema) | inhibition at 10 mg/kg (carrageenan foot edema)
15 | < 100 nM | – | – | – | – | NS(=O)(=O)c1ccc(-c2sc(COc3cc(Cl)cc(Cl)c3)nc2-c2ccc(F)cc2)cc1 [Example 34, 4-[2-((3,5-Dichlorophenoxy)methyl)-4-(4-fluorophenyl)-5-thiazolyl]benezenesulfonamide] | – | –
16 | > 100000 nM | < 100 nM | – | – | – | CS(=O)(=O)c1ccc(-c2sc(COc3cccc(Cl)c3)nc2-c2ccccc2F)cc1 [Example 36, 2-(3-Chlorophenoxy)methyl-4-(2-fluorophenyl)-5-[4-(methylsulfonyl)phenyl]thiazole] | – | –
17 | 2600 nM | < 100 nM | – | – | – | CS(=O)(=O)c1ccc(-c2sc(-c3ccc(Br)s3)nc2-c2ccc(F)cc2)cc1 [Example 25, 2-(5'-Bromo-2'-thienyl)-4-(4-fluorophenyl)-5-(4-methylsulfonylphenyl)thiazole] | – | –
18 | > 100000 nM | < 100 nM | – | – | – | CS(=O)(=O)c1ccc(-c2sc(COc3ccccc3Cl)nc2-c2ccc(F)cc2)cc1 [Example 38, 2-((2-Chlorophenoxy)methyl)-4-(4-fluorophenyl)-5-(4-methylsulfonylphenyl)thiazole] | – | –
19 | > 10000 nM | < 100 nM | – | > 100000 nM | – | CS(=O)(=O)c1ccc(-c2sc(COc3ccc(Cl)cc3)nc2-c2ccc(F)cc2)cc1 [Example 1, 2-((4-Chlorophenoxy)methyl)-4-(4-fluorophenyl)-5-(4-methylsulfonylphenyl)thiazole] | – | –
20 | 700 nM | < 100 nM | – | – | – | NS(=O)(=O)c1ccc(-c2sc(-c3ccccc3Cl)nc2-c2ccc(F)cc2)cc1 [Example 32, 4-[4-(4-Fluorophenyl)-2-(2-chlorophenyl)-5-thiazolyl]benzensulfonamide] | – | –
21 | – | < 100 nM | < 100 nM | > 10000 nM | – | CS(=O)(=O)c1ccc(-c2sc(CCCc3ccc(Br)cc3)nc2-c2ccc(F)cc2)cc1 [Example 21] | – | –
22 | > 100000 nM | < 100 nM | – | – | – | COc1ccc(OCc2nc(-c3ccc(F)cc3)c(-c3ccc(S(C)(=O)=O)cc3)s2)cc1 [Example 41, 4-(4-Fluorophenyl)-2-[(4-methoxyphenoxy)methyl]-5-[4-(methylsulfonyl)phenyl]thiazole] | 4% | –
23 | > 10000 nM | < 100 nM | < 100 nM | 1600 nM | – | CS(=O)(=O)c1ccc(-c2sc(-c3ccc(F)c(Cl)c3)nc2-c2ccc(F)cc2)cc1 [Example 12, 2-(3-Chloro-4-fluorophenyl)-4-(4-fluorophenyl)-5-(4-methylsulfonylphenyl)thiazole] | 53% | –
